From ChEMBL document CHEMBL4673265, “The food-grade antimicrobial xanthorrhizol targets the enoyl-ACP reductase (FabI) in Escherichia coli” (Bioorg Med Chem Lett, 2020)
Changes are numbered by the printed parent chain. In brackets after ≈: the same amount, converted by molar mass. Activity calls are given as the source filed them. No cut-off for these calls is given here.

Experiments:
Escherichia coli [1] = assay: Ratio of MIC for antimicrobial activity against Escherichia coli W3110 imp4213 expressing fabI392 pCA24N fabI F204V mutant assessed as absence of growth to MIC for antimicrobial activity against Escherichia coli W3110 imp4213 expressing fabI392 mutant assessed as absence of growth; assay type: functional
Escherichia coli [2] = assay: Ratio of MIC for antimicrobial activity against Escherichia coli W3110 imp4213 expressing fabI392 pCA24N fabI F203L mutant assessed as absence of growth to MIC for antimicrobial activity against Escherichia coli W3110 imp4213 expressing fabI392 mutant assessed as absence of growth; assay type: functional
Escherichia coli [3] = assay: Antimicrobial activity against triclosan resistance-induced Escherichia coli W3110 assessed as absence of growth; assay type: functional
Escherichia coli [4] = assay: Antimicrobial activity against wild type Escherichia coli W3110 assessed as absence of growth; assay type: functional
Plasmodium falciparum = assay: Binding affinity to Plasmodium falciparum FabI Y156V mutant assessed as fluorescence quenching by fluorescence spectral analysis
[5] = Drug uptake in Escherichia coli W3110 at 8 ug/ml incubated for 2 hrs (Rvb (wash control) = 1.88 pM); assay type: ADME; settings: dose 8 µg/ml
[6] = Drug uptake in Escherichia coli W3110 imp4213 mutant at 8 ug/ml incubated for 2 hrs (Rvb (wash control) = 1.48 +/- 1.31 pM); assay type: ADME; settings: dose 8 µg/ml
Escherichia coli [7] = assay: Antimicrobial activity against Escherichia coli W3110 imp4213 assessed as absence of growth; assay type: functional
Escherichia coli [8] = assay: Antimicrobial activity against Escherichia coli W3110 imp4213 expressing pCA24N mutant assessed as absence of growth; assay type: functional
Escherichia coli [9] = assay: Antimicrobial activity against Escherichia coli W3110 imp4213 expressing fabI G93V mutant assessed as absence of growth; assay type: functional
Escherichia coli [10] = assay: Antimicrobial activity against Escherichia coli W3110 imp4213 expressing pCA24N-fabI mutant assessed as absence of growth; assay type: functional
Escherichia coli [11] = assay: Antimicrobial activity against Escherichia coli W3110 imp4213 expressing pCA24N-fab/ Y156V mutant assessed as absence of growth; assay type: functional
Escherichia coli [12] = assay: Antimicrobial activity against Escherichia coli W3110 imp4213 expressing pCA24N-fab F203L mutant assessed as absence of growth; assay type: functional
Escherichia coli [13] = assay: Antimicrobial activity against Escherichia coli W3110 imp4213 expressing pCA24N-fab F204V mutant assessed as absence of growth; assay type: functional
Escherichia coli [14] = assay: Antimicrobial activity against Escherichia coli W3110 imp4213 expressing fabI392 mutant assessed as absence of growth; assay type: functional
Escherichia coli [15] = assay: Antimicrobial activity against Escherichia coli W3110 imp4213 expressing fabI392 pCA24N mutant assessed as absence of growth; assay type: functional
Escherichia coli [16] = assay: Antimicrobial activity against Escherichia coli W3110 imp4213 expressing fabI392 pCA24N fabI mutant assessed as absence of growth; assay type: functional
Escherichia coli [17] = assay: Antimicrobial activity against Escherichia coli W3110 imp4213 expressing fabI392 pCA24N fabI Y156V mutant assessed as absence of growth; assay type: functional
Escherichia coli [18] = assay: Antimicrobial activity against Escherichia coli W3110 imp4213 expressing fabI392 pCA24N fabI F203L mutant assessed as absence of growth; assay type: functional
Escherichia coli [19] = assay: Antimicrobial activity against Escherichia coli W3110 imp4213 expressing fabI392 pCA24N fabI F204V mutant assessed as absence of growth; assay type: functional
[20] = target: T1, Enoyl-[acyl-carrier-protein] reductase [NADH] FabI (Escherichia coli K-12) (UniProt P0AEK4); assay: Binding affinity to wild type Escherichia coli FabI assessed as change in entropy
T1 sequence (whole entry): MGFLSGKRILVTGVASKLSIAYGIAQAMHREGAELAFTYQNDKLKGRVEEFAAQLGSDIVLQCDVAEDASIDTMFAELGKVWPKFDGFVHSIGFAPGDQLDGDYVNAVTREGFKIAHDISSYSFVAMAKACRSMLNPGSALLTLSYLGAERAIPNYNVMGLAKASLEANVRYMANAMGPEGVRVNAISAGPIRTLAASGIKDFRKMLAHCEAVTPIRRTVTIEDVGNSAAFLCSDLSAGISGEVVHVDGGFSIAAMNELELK

[21] = test system: T2, Enoyl-[acyl-carrier-protein] reductase [NADH] FabI (Escherichia coli K-12), P0AEK4 [G93V]; assay: Binding affinity to Escherichia coli FabI G93V mutant assessed as change in entropy
T2 sequence (whole entry): T1 sequence (whole entry) with G93V

[22] = test system: T3, Enoyl-[acyl-carrier-protein] reductase [NADH] FabI (Escherichia coli K-12), P0AEK4 [Y156V]; assay: Binding affinity to Escherichia coli FabI Y156V mutant assessed as change in entropy
T3 sequence (whole entry): T1 sequence (whole entry) with Y156V

[23] = target: T1, Enoyl-[acyl-carrier-protein] reductase [NADH] FabI (Escherichia coli K-12); assay: Binding affinity to wild type Escherichia coli FabI assessed as binding free energy
[24] = test system: T2, Enoyl-[acyl-carrier-protein] reductase [NADH] FabI (Escherichia coli K-12), P0AEK4 [G93V]; assay: Binding affinity to Escherichia coli FabI G93V mutant assessed as binding free energy
[25] = test system: T3, Enoyl-[acyl-carrier-protein] reductase [NADH] FabI (Escherichia coli K-12), P0AEK4 [Y156V]; assay: Binding affinity to Escherichia coli FabI Y156V mutant assessed as binding free energy
[26] = target: T4, Enoyl-acyl-carrier protein reductase (Plasmodium falciparum) (UniProt Q965D5); assay: Binding affinity to Plasmodium falciparum FabI assessed as fluorescence quenching by fluorescence spectral analysis
T4 sequence (whole entry): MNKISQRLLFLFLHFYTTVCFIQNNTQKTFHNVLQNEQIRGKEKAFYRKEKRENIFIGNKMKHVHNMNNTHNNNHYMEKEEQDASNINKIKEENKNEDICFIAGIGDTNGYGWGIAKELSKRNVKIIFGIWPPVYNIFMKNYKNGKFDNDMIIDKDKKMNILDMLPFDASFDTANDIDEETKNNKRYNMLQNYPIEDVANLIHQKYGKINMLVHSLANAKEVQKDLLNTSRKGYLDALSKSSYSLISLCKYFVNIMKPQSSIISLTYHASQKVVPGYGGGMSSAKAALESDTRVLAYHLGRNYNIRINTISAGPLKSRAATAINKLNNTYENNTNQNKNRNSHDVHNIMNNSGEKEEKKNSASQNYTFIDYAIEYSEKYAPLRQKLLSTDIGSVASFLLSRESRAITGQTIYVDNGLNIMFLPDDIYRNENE

Escherichia coli [27] = assay: Antibacterial activity against Escherichia coli BW25113 assessed as effect on growth rate per hour at 8 uM incubated for 24 hrs by microplate reader; assay type: functional
[28] = target: T5, Enoyl-[acyl-carrier-protein] reductase [NADH] FabI (Escherichia coli K-12, UniProt P0AEK4); assay: Inhibition of Wild type Escherichia coli FabI
T5 sequence (P0AEK4 whole entry): T1 sequence (whole entry)

[29] = target: Enoyl-[acyl-carrier-protein] reductase [NADH] FabI (Escherichia coli K-12, UniProt P0AEK4, F203L); assay: Inhibition of Escherichia coli FabI F203L mutant
[30] = target: Enoyl-[acyl-carrier-protein] reductase [NADH] FabI (Escherichia coli K-12, UniProt P0AEK4, F203V); assay: Inhibition of Escherichia coli FabI F203V mutant
[31] = target: Enoyl-[acyl-carrier-protein] reductase [NADH] FabI (Escherichia coli K-12, UniProt P0AEK4, Y156V); assay: Inhibition of Escherichia coli FabI Y156V mutant
[32] = target: Enoyl-[acyl-carrier-protein] reductase [NADH] FabI (Escherichia coli K-12, UniProt P0AEK4, G93V); assay: Inhibition of Escherichia coli FabI G93V mutant

Chain of Enoyl-[acyl-carrier-protein] reductase [NADH] FabI (Escherichia coli K-12, UniProt P0AEK4, F203V) (P0AEK4 2-262 F203V limits assumed): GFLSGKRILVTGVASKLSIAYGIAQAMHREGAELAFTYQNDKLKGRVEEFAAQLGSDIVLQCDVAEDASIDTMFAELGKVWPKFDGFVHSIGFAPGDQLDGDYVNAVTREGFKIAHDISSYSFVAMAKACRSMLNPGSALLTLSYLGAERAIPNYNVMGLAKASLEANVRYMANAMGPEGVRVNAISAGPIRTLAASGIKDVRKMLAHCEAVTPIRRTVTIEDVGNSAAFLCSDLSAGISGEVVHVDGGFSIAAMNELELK
Chain of Enoyl-[acyl-carrier-protein] reductase [NADH] FabI (Escherichia coli K-12, UniProt P0AEK4, F203L) (P0AEK4 2-262 F203L limits assumed): as the sequence (P0AEK4 2-262 F203V limits assumed) above, with V202L counted along it
Chain of Enoyl-[acyl-carrier-protein] reductase [NADH] FabI (Escherichia coli K-12, UniProt P0AEK4, Y156V) (P0AEK4 2-262 Y156V limits assumed): as the sequence (P0AEK4 2-262 F203V limits assumed) above, with Y155V, V202F counted along it

`CC(C)=CCC[C@@H](C)c1ccc(C)c(O)c1` [XANTHORRIZOL] showed a Ratio (Escherichia coli [1]) of 2, a Ratio (Escherichia coli [2]) of 2 and an MIC (Escherichia coli [3]) of 0.125 mg/L (≈ 0.573 µM). For the same molecule, the MIC (Escherichia coli [4]) was 0.05 mg/L (≈ 0.229 µM), the Activity (Plasmodium falciparum) was “inactive” and the Drug uptake [5] was 0.23 pM. For the same molecule, the Drug uptake [6] was 76.65 pM, the MIC (Escherichia coli [7]) was 16 mg/L (≈ 73.3 µM) and the MIC (Escherichia coli [8]) was 16 mg/L (≈ 73.3 µM). For the same molecule, the MIC (Escherichia coli [9]) was 16 mg/L (≈ 73.3 µM), the MIC (Escherichia coli [10]) was 64 mg/L (≈ 293 µM) and the MIC (Escherichia coli [11]) was 128 mg/L (≈ 586 µM). It also gave an MIC (Escherichia coli [12]) of 256 mg/L (≈ 1170 µM), an MIC (Escherichia coli [13]) of 256 mg/L (≈ 1170 µM) and an MIC (Escherichia coli [14]) of 2 mg/L (≈ 9.16 µM). The MIC (Escherichia coli [15]) was 2 mg/L (≈ 9.16 µM), the MIC (Escherichia coli [16]) was 8 mg/L (≈ 36.6 µM) and the MIC (Escherichia coli [17]) was 16 mg/L (≈ 73.3 µM). The MIC (Escherichia coli [18]) was 16 mg/L (≈ 73.3 µM), the MIC (Escherichia coli [19]) was 16 mg/L (≈ 73.3 µM) and the -TdeltaS [20] was -135 kJ/mol. For the same molecule, the -TdeltaS [21] was -162 kJ/mol, the -TdeltaS [22] was -139 kJ/mol and the deltaG [23] was -62.7 kJ/mol. The deltaG [24] was -63.2 kJ/mol, the deltaG [25] was -44.4 kJ/mol and the Activity [26] was “inactive”. The Activity (Escherichia coli [27]) was 0.354, the IC50 [28] was 17.1 µM and the IC50 [29] was 75.7 µM. It also gave an IC50 [30] of 57.3 µM, an IC50 [31] of 37.7 µM and an IC50 [32] of 19.7 µM.
